Results published in US20030212123A1, “COX-2 selective carprofen for treating pain and inflammation in dogs” (Pfizer Inc., priority 1997, published 2003).
Where two headings read alike, the source gives them in different places.

Key:
Assay type in all cases: cell-based, dog
canine COX-1 = molecular target: T1, canine COX-1 (Canis lupus familiaris, UniProt Q8HZR1); assay: Canine COX-1 activity: washed canine platelets, A23187-stimulated TXB2 by EIA; settings: results of repeated tests averaged
T1 construct: from tissue; host or cells: washed platelets from donor dog blood
T1 sequence (Q8HZR1 28-603): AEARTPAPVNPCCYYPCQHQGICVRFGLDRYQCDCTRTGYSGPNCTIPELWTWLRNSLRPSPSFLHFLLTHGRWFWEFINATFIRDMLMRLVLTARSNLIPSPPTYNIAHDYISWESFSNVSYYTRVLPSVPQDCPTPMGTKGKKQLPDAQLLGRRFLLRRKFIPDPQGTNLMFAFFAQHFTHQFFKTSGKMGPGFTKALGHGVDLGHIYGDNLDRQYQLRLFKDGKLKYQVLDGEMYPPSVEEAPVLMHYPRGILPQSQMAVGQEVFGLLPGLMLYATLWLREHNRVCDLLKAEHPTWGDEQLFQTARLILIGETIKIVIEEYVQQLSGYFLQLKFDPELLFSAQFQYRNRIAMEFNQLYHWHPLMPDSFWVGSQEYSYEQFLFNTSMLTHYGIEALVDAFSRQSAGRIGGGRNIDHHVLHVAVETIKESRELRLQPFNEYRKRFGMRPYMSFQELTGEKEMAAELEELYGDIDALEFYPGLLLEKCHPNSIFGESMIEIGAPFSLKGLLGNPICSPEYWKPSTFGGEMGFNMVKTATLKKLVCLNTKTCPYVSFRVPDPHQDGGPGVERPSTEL
Procedure: Protocol for Evaluation of Canine COX-1 Activity
Test drug compounds were solubilized and diluted the day before the assay was to be conducted with 0.1 mL of DMSO/9.9 mL of Hank's balanced salts solution (HBSS), and stored overnight at 4° C. On the day that the assay was carried out, citrated blood was drawn from a donor dog, centrifuged at 190×g for 25 min at room temperature, and the resulting platelet-rich plasma was then transferred to a new tube for further procedures. The platelets were washed by centrifuging at 1500×g for 10 min at room temperature. The platelets were washed with platelet buffer comprising Hank's buffer (Ca free) with 0.2% bovine serum albumin (BSA) and 20 mM HEPES. […] Then, 100 μl of canine washed platelets were added and the samples were incubated at 37° C. for 15 min, after which the reaction was stopped by adding 20 μl of 77 mM EDTA. The plates were then centrifuged at 2000×g for 10 min at […], after which 50 μl of supernatant was assayed for thromboxane B2 (TXB2) by enzyme-immunoassay (EIA).

canine COX-2 [1] = molecular target: T2, canine COX-2 (Canis lupus familiaris, UniProt Q8SPQ9); assay: Canine COX-2 activity: LPS-treated DH82 canine histocytoma cells, PGE2 by EIA
T2 construct: host or cells: DH82 canine histocytoma cells, LPS-treated overnight
T2 sequence (Q8SPQ9 18-604): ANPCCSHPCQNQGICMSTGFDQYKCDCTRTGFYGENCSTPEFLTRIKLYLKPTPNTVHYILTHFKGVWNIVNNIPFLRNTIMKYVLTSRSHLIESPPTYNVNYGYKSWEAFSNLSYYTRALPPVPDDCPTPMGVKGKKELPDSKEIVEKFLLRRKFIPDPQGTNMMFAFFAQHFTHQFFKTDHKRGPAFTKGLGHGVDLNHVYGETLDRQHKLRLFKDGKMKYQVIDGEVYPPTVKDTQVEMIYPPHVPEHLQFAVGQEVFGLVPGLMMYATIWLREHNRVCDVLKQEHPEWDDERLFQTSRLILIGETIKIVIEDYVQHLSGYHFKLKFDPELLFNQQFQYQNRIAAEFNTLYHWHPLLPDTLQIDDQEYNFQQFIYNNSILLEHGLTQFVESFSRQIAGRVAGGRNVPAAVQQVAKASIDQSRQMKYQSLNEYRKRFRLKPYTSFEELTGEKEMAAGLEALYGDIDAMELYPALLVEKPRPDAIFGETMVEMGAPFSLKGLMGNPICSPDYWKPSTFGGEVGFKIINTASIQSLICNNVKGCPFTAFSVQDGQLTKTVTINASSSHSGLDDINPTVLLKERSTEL
Procedure: (§1) Protocol for Evaluation of Canine COX-2 Activity
(§2) A canine histocytoma (macrophage-like) cell line from the American Type Culture Collection designated as DH82, was used in setting up the protocol for evaluating the COX-2 inhibition activity of various test drug compounds. There was added to flasks of these cells 10 μg/mL of LPS, after which the flask cultures were incubated overnight. The same test drug compound dilutions as described above for the COX-1 protocol were used for the COX-2 assay and were prepared the day before the assay was carried out. […] The test sample suspensions were incubated for 1 hr and then centrifuged at 1000 rpm for 10 min at 4° C., after which 50 μl aliquots of each test drug sample were delivered to EIA plates. The EIA was performed for prostaglandin E2 (PGE2), and the pg/mL concentration of PGE2 was calculated from the standard line included on each plate. […] The results were averaged, and a single COX-1:COX-2 ratio was calculated.

canine COX-2 [2] = assay: as above
Procedure: as §1, §2

[3] = DH82 cells, PGE2, results of repeated tests averaged, read-out: COX-2 IC50
[4] = ratio of canine COX-1 IC50 to COX-2 IC50, higher = more COX-2 selective

| IC50 (canine COX-1) [nM] | IC50 (canine COX-2 [1]; [3]) [nM] | IC50 (canine COX-2 [1]) [nM] | SMILES | COX-1/COX-2 Ratio (canine COX-2 [2]; [4]) | COX-1/COX-2 Ratio (canine COX-2 [2]) |
| --- | --- | --- | --- | --- | --- |
| 472 | 270 | – | NC(=O)N1C(=O)C(C(=O)c2cccs2)c2cc(F)c(Cl)cc21 (stereo not shown) [Ilonidap, 6-chloro-5-fluoro-2,3-dihydro-(hydroxy-2-thienylmethylene)-2-oxo-1H-indole-1-carboxamide] | 1.75 | – |
| 2310 | 47.5 | – | O=C(O)c1ccccc1Nc1cccc(C(F)(F)F)c1 [Flufenamic acid, 2-{[3-(trifluoromethyl)phenyl]amino}-benzoic acid] | 48.6 | – |
| 1030 | 46.4 | – | O=C(O)c1cccnc1Nc1cccc(C(F)(F)F)c1 [Niflumic acid, 2-[3-(trifluoromethyl)anilino]nicotinic acid] | 22.2 | – |
| – | 3790 | – | CCCCC1C(=O)N(c2ccccc2)N(c2ccccc2)C1=O [Phenylbutazone, 4-butyl-1,2-diphenyl-3,5pyrazolidinedione] | – | – |
| – | – | 56.5 | CS(=O)(=O)Nc1ccc([N+](=O)[O-])cc1Oc1ccccc1 [Nimesulide, 4′-nitro-2′-phenoxymethanesulfonanilide] | – | – |
| 587 | – | – | CS(=O)(=O)Nc1ccc([N+](=O)[O-])cc1OC1CCCCC1 [NS-398, N-[2-(cyclohexyloxy)-4-nitrophenyl]-methanesulfonamide] | – | – |
| 223 | – | – | CN1C(C(=O)Nc2ccccn2)=C(O)c2ccccc2S1(=O)=O [Piroxicam, 4-hydroxyy-2-methyl-N-2-pyridinyl-2H-1,2-benzothiazine-3-carboxamide-1,1-dioxide] | – | – |
| > 25000 | – | 5970 | C[C@@H](C(=O)O)c1ccc2c(c1)[nH]c1ccc(Cl)cc12 [Carprofen (R-)] | – | – |
| 206 | 13.7 | – | Cc1c(Cl)cccc1Nc1ccccc1C(=O)O [Tolfenamic acid, N-(3-chloro-o-tolyl)-anthranilic acid] | 15.0 | – |
| 469 | – | – | NC(=O)N1C(=O)C(C(=O)c2cccs2)c2cc(Cl)ccc21 (stereo not shown) [Tenidap, 5-chloro-2,3-dihydro-3-(hydroxy-2-thienylmethylene)-2-oxo-1H-indole-1-carboxamide] | – | – |
| 13200 | 7410 | – | C=CCOc1ccc(CC(=O)O)cc1Cl [Alclofenac, 3-chloro-4-(2-propenyloxy)-benzene acetic acid] | 1.78 | – |
| 891 | – | – | Cc1cnc(NC(=O)C2=C(O)c3ccccc3S(=O)(=O)N2C)s1 [Meloxicam, 4-hydroxy-2-methyl-N-(5-methyl-2-thiazolyl)-2H-1,2-benzothiazine-3-carboxamide] | – | – |
| – | – | 626 | COc1ccc2cc(C(C)C(=O)O)ccc2c1 (stereo not drawn) [Naproxen, 6-methoxy-α-methyl-2-naphthaleneacetic acid] | – | – |
| 7.68 | 12.1 | – | Cc1c(Nc2ncccc2C(=O)O)cccc1C(F)(F)F [Flunixin, 2-{[2-methyl-3-(trifluoromethyl)-phenyl]amino}-3-pyridinecarboxylic acid; compounded with 1-deoxy-1-(methylamino)-D-glucitol(1:1)] | 0.635 | – |
| 505 | – | – | CC(C(=O)O)c1ccc(-c2ccccc2)c(F)c1 (stereo not drawn) [Flurbiprofen, 2-fluoro-α-methyl-[1,1′-biphenyl]-4-acetic acid] | – | – |
| 737 | 47.8 | – | Cc1ccc(Cl)c(Nc2ccccc2C(=O)O)c1Cl [Meclofenamic acid, 2-[(2,6-dichloro-3-methylphenyl)amino]-benzoic acid] | 15.4 | – |
| 6710 | – | 37.1 | C[C@H](C(=O)O)c1ccc2c(c1)[nH]c1ccc(Cl)cc12 [Carprofen (S-), (S)-6-chloro-α-methyl-carbazole-2-acetic acid] | – | – |
| 1330 | – | 2570 | CCc1cccc2c3c([nH]c12)C(CC)(CC(=O)O)OCC3 (stereo not shown) [Etodolac, 1,8-diethyl-1,3,4,9-tetrahydro-pyrano[3,4-b]indole-1-acetic acid] | – | 0.517 |
| 2540 | 362 | – | O=C(O)Cc1ccc(-c2ccccc2)cc1 [Felbinac, [1,1′-biphenyl]-4-acetic acid] | 7.01 | – |

| SMILES | IC50 (canine COX-1) [nM] | IC50 (canine COX-2 [1]; [3]) [nM] | IC50 (canine COX-2 [1]) [nM] | COX-1/COX-2 Ratio (canine COX-2 [2]; [4]) | COX-1/COX-2 Ratio (canine COX-2 [2]) |
| --- | --- | --- | --- | --- | --- |
| COc1ccc2cc(CC(=O)O)ccc2c1 [6-MNA, 6-methoxy-2-naphthyl-acetic acid] | 28300 | 4210 | – | 6.72 | – |
| Cc1cccc(Nc2ccccc2C(=O)O)c1C [Mefenamic acid, 2-[(2,3-dimethylphenyl)amino]-benzoic acid] | 403 | – | 36.2 | 11.1 | – |
| CC(=O)Oc1ccccc1C(=O)O [Aspirin, 2-(acetyloxy)-benzoic acid] | 34300 | – | > 100000 | <0.343 | – |
| CC(C(=O)O)c1cccc(C(=O)c2ccccc2)c1 (stereo not drawn) [Ketoprofen, 3-benzoyl-α-methyl-benzeneacetic acid] | – | – | 123 | – | – |
